Source: patent publication US11388924B2 (priority 2018, dated 2022)
Where two headings read alike, the source gives them in different places.

Tests used:
[1] = pH 7.4; cited from earlier work
[2] = Text: The neutralization reaction in vegetable glycerin is less favorable in view of the reduced solubility of CO2 (Nunes et al., 2013—Solubility of CO2 in glycerol at high pressures. J. of Fluid Phase Equilibria; 358: 105-107).
In an embodiment of the present disclosure, the experimental setup described by Bihong, et al., 2015 (Mechanisms of CO2 Capture into Monoethanolamine Solution with Different CO2 Loading during the Absorption/Desorption Processes. J. of Environmental Science technology; 49 (17): 10728-10735) was implemented. […] In a further embodiment of the present disclosure, the neutralization with CO2 was performed at pressures ranging from about 0.1 MPa to about 2.7 MPa.
The organic acid is typically selected based on volatility under vaping conditions, tastelessness, low toxicity or nontoxicity to human health, ease of manipulation, ability to form liquid salts and […] an unpleasant sensation such as shortness of breath. In a further embodiment of the present disclosure, the organic acid is glycolic acid.

[3] = after absorption through the lung; cited from earlier work
[4] = pig's nasal mucosa; cited from earlier work
[5] = 20° C.; cited from earlier work
[6] = 25° C., cited from earlier work

From the text for subjects: This sensation ranges from a smooth satisfying catch as the vapor travels down the throat to an intolerable harshness.

CN1CCCC1c1cccnc1 (stereo not shown) [nicotine]
nicotine ionized [1]: ~69% | nicotine unionized [1]: 31% | pH reached by neutralization with CO2 ([2]; about 25° C., about 0.41 MPa): ≤ 7.5 | final pH after neutralization with CO2 ([2]; in water): 6.8 | initial pH ([2]; pure nicotine in propylene glycol, before neutralization): above 9.5 | estimated time to reach the brain [3]: 10 to 20 s | permeation of the protonated form versus the unionized form [4]: higher than that for the unionized form | pKa [5]: 6.15 | burning sensation in the throat (subjects; in vivo): diminishes or disappears | feeling of shortness of breath (subjects; in vivo): waned or disappeared

O=C=O [CO2]
number moles of CO2 dissolved ([6]; acetone, 0.52 MPa): 0.0876 | number moles of CO2 dissolved ([6]; ethanol, 0.41 MPa): 0.0349 | number moles of CO2 dissolved ([6]; propylene glycol, 0.38 MPa): 0.0100

O=C(O)CC(O)C(=O)O (stereo not shown) [malic acid]
sensation produced by the acid used in the formulation (subjects; acid in nicotine formulations): unpleasant feeling

CC(O)C(=O)O (stereo not shown) [lactic acid]
sensation produced by the acid used in the formulation (subjects; in vivo): unpleasant feeling

O=C(O)CC(O)(CC(=O)O)C(=O)O [citric acid]
sensation produced by the acid used in the formulation (subjects; in vivo): unpleasant feeling
